Experiment [1] concerns JAK1 and JAK2. Briefly: JAK activity in CHO-AT1a cells (phosphotyrosine immunoprecipitation, JAK1/JAK2 immunoblot). To be noted: 12-HETE 10^−7M, 10 hours. Format: cell-based, Chinese hamster. As for the experimental part:
It has further been discovered that 12-HETE induces stimulation of JAK activity. CHO-AT1a cells were treated with 12-HETE (10^−7M) for 10 hours, immunoprecipitated with a phosphotyrosine antibody and immunoblotted using specific JAK1 and JAK2 antibodies.

Experiment [2] deals with VEGF in vascular smooth muscle cells (VSMC). Briefly: VEGF protein, mRNA and secretion in VSMC (Western, Northern, EIA). In kind it is cell-based, Porcine and human. The protocol:
In addition to the work reflected in FIGS. 8-10, it has now been discovered that AII, 12-HETE and hyperglycemia (HG) increase VEGF production in vascular smooth muscle cells (VSMC). Porcine and human VSMC were cultured for at least two passages under normal glucose (NG, 5.5 mM) or under HG conditions. VEGF protein expression was determined by Western blotting and VEGF mRNA by Northern blots. HG alone increased the level of VEGF mRNA (2.8-fold) and protein (3.2-fold). […] In addition, HG increased the secretion of VEGF into the medium as measured by a specific EIA (56.2±4 ng/ml NG vs 73±5 HG, p<0.02).

The test system of experiment [3] is RINm5F cells. Briefly: DNA synthesis (3H-thymidine incorporation) in RINm5F cells. Format: cell-based, rat. To be noted: 24 hours, 12-HETE 10^−9M. The protocol: FIG. 11 illustrates the effects of 12-LO products on DNA synthesis in the insulin-producing rat beta cell line, RINm5F. DNA synthesis was studied using ^3H-thymidine incorporation (luCi/ml) added for the last six hours (18-24 hours of experiment). The LO products were added to the cells in complete growth media for 24 hours.
Applicants have discovered that direct addition of the 12-LO products 12-S-HETE or 12-HPETE directly decreases cellular growth as reflected by decreased ^3H thymidine incorporation or DNA synthesis in the rat pure beta cell line RIN-M5F.

Experiment [4] concerns VEGF protein in MCF-7 cells. Briefly: VEGF protein expression in breast cancer cells (immunoblot). In kind it is cell-based, human. As for the experimental part:
FIG. 8 illustrates the dose-dependent effect of platelet-derived growth factor (PDGF) on vascular endothelial growth factor (VEGF) protein (42 kD) expression in MCF-7 breast cancer cells. Nearly confluent MCF-7 cells were serum starved for 24 hours by placing in DME medium+0.4% FCS and 0.2% BSA. This medium was then freshly replaced and the cells incubated for another 24 hours with PDGF. At the end of the incubation, the cell monolayers were washed with ice-cold PBS, scraped into PBS and pelleted by centrifugation. The cell pellets were then lysed and equal amounts of protein (50 μg) subjected to electrophoresis and immunoblotting to detect VEGF using a specific antibody from Santa Cruz Biotechnology. Detection was by a chemiluminiscent technique.
FIG. 9 illustrates the effect of epidermal growth factor (EGF) and the 12-lipoxygenase product 12-HETE on VEGF protein expression in the MCF-7 breast cancer cell line MCF-7. MCF-7 cells were treated with EGF and 12-HETE for 24 hours and VEGF protein identified as described in the legend to FIG. 8.
(A western blot detects proteins with antibodies after separation by electrophoresis.)

The subject of experiment [5] is JNK. Briefly: JNK activity in CHO-AT1a cells. In kind it is cell-based, Chinese hamster. The protocol:
The plasmid pGEX-cJun 1/79 (Dept. Pharmacol. UCSD, La Jolla) is a GST-cJun (1-79) expression vector encoding amino acids (1-79) of cJun. The GST fusion protein expression vector was transformed into E. Coli. Protein was induced with 0.1 mM IPTG and purified by affinity binding to glutathione-agarose beads. Unstimulated or stimulated cells were lysed into WCEB (25 mM HEPES, pH 7.7, 03.M Nacl, 15 mM MgCl2, 02.mM EDTA and 0.1% triton X-100). About 50 μg protein extract was incubated with GST-cJun+GSH agarose overnight at 4° C. Phosphorylation was carried out at 30° C. for 20 minutes in the presence of 20 mM HEPES, pH 7.5, 20 mM b-glycerophosphate, 10 mM p-nitrophenolphosphate, 10 mM MgCl2, 10 mM DDT, 50 μg Na3VO4, 20 μM ATP (cold) and about 0.5 μl of new gamma ^32P-ATP. After boiling with electrophoresis sample buffer, the supernatants were analyzed on 12% SDS-PAGE. JNK activity was also measured by immunoprecipitation method using an anti-JNK antibody (Parmingen Co., San Diego) and then activities were measured using 2 μg of GST-cJun (1-79) as substrate as described in Cell, 81:1147-1157 (1995).
(§1) It has been discovered that the administration of AII results in biphasic activation of MAP kinase (all of the MAP kinase experiments were conducted in CHO-AT1a cells—AII receptor AT1a cDNA transfected Chinese hamster ovary cells).

The subject of experiment [6] is ERK. Briefly: ERK activity in CHO-AT1a cells. Format: cell-based, Chinese hamster. To be noted: 12-HETE 10^−7M, peaks at 5 minutes and 3-4.5 hours. As for the experimental part:
ERK activity was evaluated by the substrate-SDS-polyacrylamide gel method described in Anal. Biochem., 183:139-143 (1989). Confluent cells in […] were made quiescent in serum-free medium and then treated with agonists for various time periods. The cells were then lysed in lysis buffer (1% NP40, 1% sodium deoxycholate, 0.1% SDS, 100 mM NaCl, 50 mM Tris, 10 mM EDTA, 1 mM EGTA, aprotinin, […], 0.1 mM PMSF and 1 mM sodium orthovanadate, pH 7.4). Lysates were centrifuged to pellet nuclei and the cell extracts ([…]) were subjected to electrophoresis on SDS-polyacrylamide gels (10%) containing myelin basic protein (0.5 mg/ml) as an ERK substrate. The SDS was then washed, followed by denaturation, renaturation and protein phosphorylation on the gel with [^32P] ATP.
as §1

Experiment [7] concerns smooth muscle cell migration. To be noted: cited from earlier work.
Experiment [8] deals with beta sub-unit of the human insulin receptor. Briefly: Insulin receptor phosphorylation in rat-1-fibroblasts containing the human insulin receptor. Format: cell-based. To be noted: 12-HETE 10^−7M. As for the experimental part:
7. Baicalein, a selective 12-LO inhibitor, can prevent glucose-induced insulin resistance. To perform these studies, applicants cultured rat-1-fibroblasts that have been engineered to contain the human insulin receptor for ten days in high glucose (25 mM). For the last 24 hours, the cells were cultured with 10^−6M baicalein. The marked bands represent the phosphorylated beta sub-unit of the human insulin receptor (FIG. 23). As the band becomes lighter, it represents reduced insulin action. Lane 1 represents the insulin receptor phosphorylation in normal glucose (5.5 mM) vs the reduced insulin action in lane 5 (25 mM glucose).

The subject of experiment [9] is MO binding to HAEC. Briefly: Monocyte binding to human aortic endothelial cells. In kind it is cell-based. The following applies: HAEC in 5.5 mM glucose, 10^−10M; control 66±6. The protocol: The rate of atherosclerosis is accelerated in humans with diabetes mellitus (DM). Applicants recently published evidence that high glucose (HG) exposure of human aortic endothelial cells (HAEC) selectively increases monocyte (MO) but not neutrophil binding (56). HG exposure to EC can increase arachidonic acid (AA) release and lipoxygenase (LO) production formation. In the current study, applicants evaluated the role of 12- and 15-LO products in MO binding to HAEC. Culture of HAEC in HG (25 mM) for two passages increased MO binding compared to cells maintained in 5.5 mM glucose (239±30 cells/field HG vs 111±7, p<0.01). Phenidone (10^−6M), an inhibitor of the 12-LO pathway (50 percent inhibition of HG-induced binding, p<0.05). […] 12(S)-HETE added to HAEC cultured in 5.5 mM glucose increased MO binding (66±6 cells/field control vs 114±4 12-HETE 10^−10M, p<0.01). […] In summary, (1) elevated glucose increases MO binding to HAEC and this effect can be reduced by blockade of the LO pathway; (2) 12 but not 15-LO products, can increase MO binding.

`CCCCC/C=C\C[C@@H](O)/C=C/C=C\C/C=C\CCCC(=O)O` [12-HETE, 12-Hydroxyeicosatetraenoic Acid]: the JAK activity entry in [1] is listed as “increased JAK activity”. In addition, the “increase in VEGF secretion (EIA)” value in [2] was 1.4 fold. In experiment [2] (12-HETE 10^−8M and 10^−7M, 4 hours, NG and HG), the “expression of VEGF protein and mRNA” value is reported as “increased the expression”. For the same compound, in experiment [3], the “3H-thymidine incorporation (DNA synthesis)” value is “reduced”. The VEGF protein expression result in experiment [4] (MCF-7, 24 hours) is reported as “more potent than EGF”. The VEGF protein expression entry in experiment [4] (MCF-7 and MDA MB, 12-HETE 10^−7M and 10^−6M) is recorded as “increases VEGF protein expression”. In [5] (12-HETE 10^−7M, 30 minutes), the “stimulation of JNK activity, first peak” value was 2-3 fold. Moreover, in experiment [5] (12-HETE 10^−7M, 3 hours), the “stimulation of JNK activity, second peak” value is given as 2.5-5 fold. In addition, the “lowest concentration stimulating JNK activity” value in experiment [5] (FIG. 29) is 10^−9 M. The “stimulation of ERK activity” value in [6] is “biphasic stimulation”. The “lowest concentration leading to smooth muscle cell migration” value in [7] is reported as 10^−12 M. In addition, in [8], the “basal insulin receptor phosphorylation” value was “did not directly alter” and the “insulin-induced receptor phosphorylation of the beta subunit” value is reported as “markedly reduced”. This compound also returned an MO binding in [9] of 114±4 cells/field.

Values taken from patent US6893829B2, “Human leukocyte 12-lipoxygenase and its role in the pathogenesis of disease states” (City of Hope, priority 1992, dated 2005).
